Test results: patent US11174251B2, “Compositions and methods for inhibition of the JAK pathway” (Rigel Pharmaceuticals, Inc., priority 2010, dated 2021)
Counter-ions that a name gives are not always drawn.

Biological target: T1, JAK3 (Homo sapiens, UniProt P52333)
T1 construct: The Ramos B-cell line was acquired from ATCC (ATCC Catalog No. CRL-1596); host or cells: Ramos B-cell line (human)
T1 sequence (P52333 1-1124): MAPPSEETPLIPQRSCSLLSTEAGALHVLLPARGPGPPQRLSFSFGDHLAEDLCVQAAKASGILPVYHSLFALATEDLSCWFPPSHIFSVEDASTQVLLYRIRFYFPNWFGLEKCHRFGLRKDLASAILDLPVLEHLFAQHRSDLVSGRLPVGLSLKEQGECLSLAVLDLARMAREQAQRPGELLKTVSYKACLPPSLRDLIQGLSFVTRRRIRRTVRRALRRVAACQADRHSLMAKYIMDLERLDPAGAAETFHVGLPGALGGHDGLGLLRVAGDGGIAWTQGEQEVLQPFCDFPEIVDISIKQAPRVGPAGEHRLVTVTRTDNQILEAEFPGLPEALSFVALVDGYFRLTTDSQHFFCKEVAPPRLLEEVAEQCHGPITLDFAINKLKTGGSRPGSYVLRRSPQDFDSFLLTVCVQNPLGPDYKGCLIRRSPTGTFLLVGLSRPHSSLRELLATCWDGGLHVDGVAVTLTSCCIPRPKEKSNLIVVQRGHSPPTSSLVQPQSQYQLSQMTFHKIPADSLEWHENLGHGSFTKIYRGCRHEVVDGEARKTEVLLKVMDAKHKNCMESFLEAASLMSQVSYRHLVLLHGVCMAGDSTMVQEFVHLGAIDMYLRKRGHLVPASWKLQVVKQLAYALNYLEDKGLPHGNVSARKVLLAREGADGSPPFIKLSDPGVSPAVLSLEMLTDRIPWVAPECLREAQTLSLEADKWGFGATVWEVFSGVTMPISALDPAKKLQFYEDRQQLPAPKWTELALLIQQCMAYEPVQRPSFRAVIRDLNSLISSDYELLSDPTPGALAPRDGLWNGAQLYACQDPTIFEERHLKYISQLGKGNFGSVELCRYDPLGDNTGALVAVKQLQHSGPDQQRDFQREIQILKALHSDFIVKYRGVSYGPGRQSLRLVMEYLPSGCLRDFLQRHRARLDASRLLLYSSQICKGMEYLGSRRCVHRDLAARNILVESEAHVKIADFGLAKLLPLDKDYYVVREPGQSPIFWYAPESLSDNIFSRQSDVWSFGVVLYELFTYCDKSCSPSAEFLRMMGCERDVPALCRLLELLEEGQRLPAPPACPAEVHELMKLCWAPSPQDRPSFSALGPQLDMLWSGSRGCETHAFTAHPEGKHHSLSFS
Assay: Assay for CD23 expression on Ramos B-cells stimulated by IL-4 (Table IV: ability to inhibit JAK3 activity)
Assay type: cell-based
Details: tested under conditions described in Example 3 (so in the source)
How it was run: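 Human Ramos B cells in RPMI with 5% serum, pre-incubated 1 h at 37 °C with compound or DMSO, then stimulated with IL-4 (final 50 units/mL) for 20–24 h. Surface CD23 upregulation measured by FACS staining as readout of JAK1/JAK3–Stat-6 signalling.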

IC50 [nM] | SMILES
< 500 | Cc1cc(Nc2nc(Nc3ccc(F)c(S(C)(=O)=O)c3)ncc2F)cc2[nH]c(=O)oc12 [Compound I-173, 5-(2-(4-fluoro-3-(methylsulfonyl)phenylamino)-5-fluoropyrimidin-4-ylamino)-7-methylbenzo[d]oxazol-2(3H)-one trifluoroacetate salt]
< 500 | NS(=O)(=O)c1cccc(Nc2ncc(F)c(Nc3cc(F)c4oc(=O)[nH]c4c3)n2)c1 [Compound I-174, 3-(5-fluoro-4-(7-fluoro-2-oxo-2,3-dihydrobenzo[d]oxazol-5-ylamino)pyrimidin-2-ylamino)benzenesulfonamide trifluoroacetate salt]
< 500 | [2H]C([2H])([2H])Oc1cc(C)cc(Nc2ncc(F)c(Nc3ccc4oc(=O)[nH]c4c3)n2)c1 [Compound I-175, 5-(5-fluoro-2-(3-d3-methoxy-5-methylphenylamino)pyrimidin-4-ylamino)benzo[d]oxazol-2(3H)-one trifluoroacetate salt]
> 10000 | COc1cc(Nc2ncc(F)c(Nc3cc(C)c4oc(=O)[nH]c4c3)n2)cc(C(F)(F)F)c1 [Compound I-176, 5-(2-(3-(trifluoromethyl)-5-methoxyphenylamino)-5-fluoropyrimidin-4-ylamino)-7-methylbenzo[d]oxazol-2(3H)-one trifluoroacetate salt]
> 10000 | COc1cc(C)cc(Nc2ncc(F)c(Nc3cc(C)c4oc(=O)[nH]c4c3)n2)c1 [Compound I-177, 5-(2-(3-methoxy-5-methylphenylamino)-5-fluoropyrimidin-4-ylamino)-7-methylbenzo[d]oxazol-2(3H)-one trifluoroacetate salt]
< 500 | COc1ccc(Nc2ncc(F)c(Nc3cc(C)c4oc(=O)[nH]c4c3)n2)cc1C [Compound I-178, 5-(2-(4-methoxy-3-methylphenylamino)-5-fluoropyrimidin-4-ylamino)-7-methylbenzo[d]oxazol-2(3H)-one trifluoroacetate salt]
> 10000 | COc1cc(C)cc(Nc2ncc(F)c(Nc3cc(F)c4oc(=O)[nH]c4c3)n2)c1 [Compound I-179, 5-(2-(3-methoxy-5-methylphenylamino)-5-fluoropyrimidin-4-ylamino)-7-fluorobenzo[d]oxazol-2(3H)-one trifluoroacetate salt]

The next lines start with the compound.

SMILES | IC50 [nM]
CS(=O)(=O)c1cc(Nc2ncc(F)c(Nc3ccc4oc(=O)[nH]c4c3)n2)ccc1F [Compound I-168, 5-(2-(4-fluoro-3-(methylsulfonyl)phenylamino)-5-fluoropyrimidin-4-ylamino)benzo[d]oxazol-2(3H)-one trifluoroacetate salt] | < 500
O=c1[nH]c2cc(Nc3nc(Nc4cc(F)cc(N5CCOCC5)c4)ncc3F)ccc2o1 [Compound I-169, 5-(2-(3-fluoro-5-morpholinophenylamino)-5-fluoropyrimidin-4-ylamino)benzo[d]oxazol-2(3H)-one ditrifluoroacetate salt] | < 500
CN1CCN(c2cc(F)cc(Nc3ncc(F)c(Nc4ccc5oc(=O)[nH]c5c4)n3)c2)CC1 [Compound I-170, 5-(2-(3-fluoro-5-(4-methylpiperazin-1-yl)phenylamino)-5-fluoropyrimidin-4-ylamino)benzo[d]oxazol-2(3H)-one ditrifluoroacetate salt] | < 500
Cc1cc(Nc2nc(Nc3cccc(S(N)(=O)=O)c3)ncc2F)cc2[nH]c(=O)oc12 [Compound I-171, 3-(5-fluoro-4-(7-methyl-2-oxo-2,3-dihydrobenzo[d]oxazol-5-ylamino)pyrimidin-2-ylamino)benzenesulfonamide trifluoroacetate salt] | < 500
Cc1cc(Nc2nc(Nc3cccc(S(C)(=O)=O)c3)ncc2F)cc2[nH]c(=O)oc12 [Compound I-172, 5-(2-(3-(methylsulfonyl)phenylamino)-5-fluoropyrimidin-4-ylamino)-7-methylbenzo[d]oxazol-2(3H)-one trifluoroacetate salt] | < 500
